We go through seven molecules from patent publication US20220359084A1, “Methods of Treatments Based Upon Molecular Characterization of Breast Cancer” (The Board of Trustees of the Leland Stanford Junior …, priority 2019, published 2022).

In data set [1] the test system is patients with metastatic ER-positive breast cancer. As to the kind of experiment: Progression free survival by molecular subgroup in a prospective cohort of 812 patients. Type of data set: in vivo, human. The note with it: for progression free survival after endocrine therapy, high-risk vs lower risk integrative cluster groups: endocrine therapy (fulvestrant or tamoxifen), pooled, groups averaged together, FIG. 47, adj. P=0.0075. The source says: The ability of chemotherapy, targeted therapies, and endocrine therapies on patients within particular molecular subgroups was examined in a prospective cohort of 812 patients with metastatic ER-positive breast cancer. Provided in FIG. […]

The test system of data set [2] is patient derived organoids derived from patient 19004. Put plainly: Patient derived organoid (PDO) viability, AlamarBlue, FIGS. 53A and 53B. Type of data set: cell-based. The following applies: Homo sapiens, 192 h, ER-positive PDOs categorized into IntClust4, text says 19006 patient (FIGS. 53A and 53B), 8 days treatment, 'on the order of', units given within the value. On the procedure: FIGS. 53A and 53B provide viability curves of patient derived organoids derived from patient 19004, generated in accordance with various embodiments of the invention.
To assess breast cancer PDOs, the organoids were digested into single cells with TrypLE (Gibco). Cells are strained with a 100 μm filter then seeded as 10,000 cells per well with 10 μl […] (BME) (Cultrex) in a black, clear bottom 96-well plate and covered with 100 μl breast organoid media. Cells are grown for 4 days to form small spheroids. Cells were treated with 6 concentrations of different targeted Therapies (including but not limited to capivasertib, ipatasertib, PF4706871, M2698, alpelisib), as well as negative control (DMSO) and positive control (Triton X-100) in duplicate for 8 days, with drug media refreshed on day 5. On day 8, the plates are manually checked under the microscope to ensure the positive control drug(s) had effectively killed organoids, and that organoids present in the negative control wells were healthy. Cell viability is assessed using AlamarBlue (Thermofisher) by adding the dye to the media in final concentration of 1:10, followed by incubation for 4 hours at 37° C., and […] measurement using a microplate reader (Molecular Devices). […] Averages of IC50s from two to three independent experiments were calculated and visualized using R. […]

The subject of data set [3] is PDOs derived from the 19006 patient. As to the kind of experiment: Patient derived organoid (PDO) viability, AlamarBlue, patient 19006. Type of data set: cell-based. The following applies: Homo sapiens, 192 h, ER-positive PDOs categorized into IntClust4, 19006 patient (FIGS. 52A and 52B), 8 days treatment, 'on the order of', units given within the value. On the procedure: FIGS. 52A and 52B provide viability curves of patient derived organoids derived from patient 19006, generated in accordance with various embodiments of the invention.
To assess breast cancer PDOs, the organoids were digested into single cells with TrypLE (Gibco). Cells are strained with a 100 μm filter then seeded as 10,000 cells per well with 10 μl […] (BME) (Cultrex) in a black, clear bottom 96-well plate and covered with 100 μl breast organoid media. Cells are grown for 4 days to form small spheroids. Cells were treated with 6 concentrations of different targeted Therapies (including but not limited to capivasertib, ipatasertib, PF4706871, M2698, alpelisib), as well as negative control (DMSO) and positive control (Triton X-100) in duplicate for 8 days, with drug media refreshed on day 5. On day 8, the plates are manually checked under the microscope to ensure the positive control drug(s) had effectively killed organoids, and that organoids present in the negative control wells were healthy. Cell viability is assessed using AlamarBlue (Thermofisher) by adding the dye to the media in final concentration of 1:10, followed by incubation for 4 hours at 37° C., and […] measurement using a microplate reader (Molecular Devices). IC50 values are computed using R package drc. Averages of IC50s from two to three independent experiments were calculated and visualized using R.
Likewise, capivasertib, ipatasertib, and M22698, but not alpelisib and PF4706871, each provide IC50 on the order of 100 nM to 10 μM for PDOs derived from the 19006 patient (FIGS. 53A and 53B).

For data set [4] the following is noted: general statement, no test described; cited from earlier work.

pIC50: −log10 of the molar value.

For the molecule `CO[C@H]1C[C@@H]2CC[C@@H](C)[C@@](O)(O2)C(=O)C(=O)N2CCCC[C@H]2C(=O)O[C@H]([C@H](C)C[C@@H]2CC[C@@H](OCCO)[C@H](OC)C2)CC(=O)[C@H](C)/C=C(\C)[C@@H](O)[C@@H](OC)C(=O)[C@H](C)C[C@H](C)/C=C/C=C/C=C/1C` [everolimus], in data set [1] (IntClust1 patients, FIG. 45, adj. P value=0.023), the “progression free survival probability, with vs without mTOR antagonist treatment” value was “profoundly greater survival probability”.

`CN(C)C(=O)c1cc2cnc(Nc3ccc(N4CCNCC4)cn3)nc2n1C1CCCC1` [ribociclib]: the “progression free survival probability, with vs without CDK4/6 antagonist treatment” value in data set [1] (IntClust2 patients, pooled CDK4/6 inhibitor group, FIG. 46, adj. P value=0.016) is “profoundly greater survival probability”. Take `CC(C)NC[C@@H](C(=O)N1CCN(c2ncnc3c2[C@H](C)C[C@H]3O)CC1)c1ccc(Cl)cc1` [ipatasertib]: the negative logarithm of the IC50 (pIC50) in data set [2] and in data set [3] was 5.00 to 7.00 in each case. Consider `Cc1nc(NC(=O)N2CCC[C@H]2C(N)=O)sc1-c1ccnc(C(C)(C)C(F)(F)F)c1` [alpelisib], for which the pIC50 in data set [3] was 5.00 to 7.00.

Regarding `CC/C(=C(\c1ccccc1)c1ccc(OCCN(C)C)cc1)c1ccccc1` [tamoxifen], in data set [1], the “progression free survival after endocrine therapy, high-risk vs lower risk integrative cluster groups” value is given as “lower risk groups have higher probability of progression free survival than high-risk groups”. With `C[C@]12CC[C@@H]3c4ccc(O)cc4C[C@@H](CCCCCCCCC[S+]([O-])CCCC(F)(F)C(F)(F)F)[C@H]3[C@@H]1CC[C@@H]2O` (stereo partly drawn) [fulvestrant], in data set [1] (IntClust1, IntClust2 and IntClust6 patients (averaged together), FIG. 48, adj. P value=0.004), the “progression free survival probability, aromatase inhibitor vs fulvestrant treatment” value is recorded as “patients receiving an aromatase inhibitor had greater survival probability than patients receiving fulvestrant”. Also, in data set [1] (IntClust9 patients, FIG. 49, adj. P value=0.361), the “progression free survival probability, fulvestrant vs aromatase inhibitor treatment” value was “slightly, yet insignificantly, greater survival probability”. Also, the “progression free survival after endocrine therapy, high-risk vs lower risk integrative cluster groups” value in data set [1] is on record as “lower risk groups have higher probability of progression free survival than high-risk groups”. Moreover, the oral availability result in data set [4] is “low”.

With `NC(=O)c1cccc2c(N[C@H](CN3CCC3)c3ccc(Cl)c(C(F)(F)F)c3)ncnc12` [M22698], the pIC50 in data set [2] and in data set [3] was 5.00 to 7.00 throughout.
